Measured values from PMC6560211, “ApoAI-derived peptide increases glucose tolerance and prevents formation of atherosclerosis in mice” (Diabetologia, 2019).

Experiments:
[1] = test system: Lepr db (db/db) mice; assay: GTT in db/db mice; assay type: in vivo, mouse; conditions: db/db 5.5 weeks
Method: (§1) Male C57BL/6NTac mice (Taconic, Ejby, Denmark) at 8–9 weeks of age were acclimatised for 1 week on a normal chow diet, then changed to a high-fat diet for 2 weeks (diet-induced obesity; DIO), followed by GTT as indicated. Male Lepr^db (db/db) mice on a BKS background (Taconic) at 5 weeks of age were maintained on a normal chow diet and GTTs were performed at 5.5 and 14 weeks of age as indicated. Blood glucose levels were measured in fresh blood (C57: OneTouch Ultra2, Lifescan, Milpitas, CA, USA; db/db: GlucoSmart Swing, MSP bodmann, Bobingen, Germany) and insulin levels were assayed in serum using ELISA (Mercodia) at the times indicated in ESM Fig. 2. See ESM Methods for more details.
(§2) Fig. 4 Acute treatment with RG54 improves glucose tolerance during GTTs in three models of type 2 diabetes. Male C57Bl/6 mice fed a high-fat diet for 2 weeks (a–d) or db/db mice at 5.5 (e–h) or 14 (i–l) weeks old were fasted overnight, then treated with a single i.p. injection of NaCl (negative control, 200 μl; C57, n=12; db/db 5.5 weeks, n=6; db/db 14 weeks, n=6), liraglutide (0.1 mg/kg; C57, n=11; db/db 5.5 weeks, n=6; db/db 14 weeks, n=6), ApoA-I (14 mg/kg; C57, n=12; db/db 5.5 weeks, n=6; db/db 14 weeks, n=6) or RG54 (12 mg/kg; C57, n=12; db/db 5.5 weeks, n=6; db/db 14 weeks, n=5). After a further 3 h, mice received an i.p. glucose load (40 mg/mouse for C57; 50 mg/mouse for db/db) followed by blood and plasma collection at the indicated times, and blood glucose (a,e,i) and plasma insulin (b,f,j) concentrations were determined. Total AUC was calculated (mmol/l × min for glucose, pmol/l × min for insulin) and then normalised to the average value of the relevant NaCl control group to give relative AUC (% control) for glucose (c,g,k) and insulin (d,h,l). Values are means ± SEM. *p≤0.05, **p≤0.01, ***p≤0.001 vs NaCl control […]
We next used type 2 diabetes models with a more advanced phenotype: db/db mice at 5.5 and 14 weeks of age.
At 14 weeks of age, mice were markedly obese with a mean ± SEM body weight of 55.3 ± 0.6 g. […] One mouse was excluded from RG54 treatment group because of very high residual insulin secretion prior to the experiment.
Male C57BL/6NTac mice were purchased from Taconic (Ejby, Denmark) at 8-9 weeks of age, acclimatised for one week on normal chow diet, then changed to a High-Fat Diet (HFD; Research Diets D12492, 60% fat content) for 2 weeks, followed by glucose tolerance testing (GTT) with timings as indicated (ESM Figure 2). Male Leprdb mice (db/db) on BKS background purchased from Taconic (BKS.Cg-m+/+Leprdb/BomTac, Ejby, Denmark) at 5 weeks of age were maintained on normal chow diet and GTTs were performed at 5.5 and 14 weeks of age with timings as indicated (ESM Figure 2). For the GTTs, mice fasted overnight (9 h) were injected with the appropriate treatment, and after an additional 3 h given ip glucose (C57: 40 mg/mouse; db/db: 50 mg/mouse) followed by collection of serum samples at the indicated times. Blood glucose levels were measured in fresh blood (C57: OnetouchUltra2, Lifescan; db/db: GlucoSmart Swing, MSP bodmann) and insulin levels were assayed in serum using ELISA (Mercodia). db/db mice were independently randomized to treatments groups for GTT at each time point as no carry over was expected between experiments due to the acute nature of the treatment effects. Primary outcomes were blood glucose and insulin measurements during the GTT. C57BL/6NTac mice were euthanized immediately after each experiment whereas db/db were euthanized immediately after the GTT at 14 weeks of age. […]
and reproducible clinical symptoms of diabetes than females in these models [5; 6] thus ensuring the reproducibility of clinical symptoms between animals within the study. […]

[2] = test system: DIO C57BL/6NTac mice; assay: GTT in diet-induced obesity (DIO) mice; assay type: in vivo, mouse; conditions: for fasting glucose levels / fasting insulin levels / insulin sensitivity as measured by QUICKI: DIO mice, 3 h treatment, i.p.
Method: as §1
The effect of RG54 peptide on glucose disposal was investigated in an established insulin-resistant mouse model. DIO mice were fasted for 9 h followed by a single i.p. dose of RG54 (12 mg/kg), ApoA-I (14 mg/kg), liraglutide (0.1 mg/kg), or an equal volume of NaCl solution. After a further 3 h fasting period, GTTs were performed (Fig. 4a,b).
as §2
We directly compared the i.p. and s.c. injection routes in DIO mice. DIO mice were fasted for 9 h, followed by a single i.p. or s.c. injection of RG54 (12 mg/kg), ApoA-I (14 mg/kg), or an equal volume of NaCl solution. After a further 3 h fasting and incubation period, GTTs were performed. […] Finally, we assessed the dose response of s.c. RG54 to find treatment concentrations with full or partial effects on glycaemic control as compared with our positive control (Fig. 6).
Male C57Bl/6 mice fed a high-fat diet for 2 weeks were fasted overnight, then treated with a single i.p. or s.c. injection of NaCl (negative control, 200 μl, n=6), ApoA-I (14 mg/kg, n=6) or RG54 (12 mg/kg, n=6). After a further 3 h, all mice received an i.p. glucose load (40 mg/mouse) followed by blood and plasma collection at the indicated times, and blood glucose (a,b) and plasma insulin (d,e) concentrations were determined for all injection routes. Total AUC was calculated (mmol/l × min for glucose, pmol/l × min for insulin) and then normalised to the average value of the relevant NaCl control group to give relative AUC (% control) for glucose (c) and insulin (f). Values are means ± SEM. ***p≤0.001 vs NaCl control […]
Male C57BL/6NTac mice were purchased from Taconic (Ejby, Denmark) at 8-9 weeks of age, acclimatised for one week on normal chow diet, then changed to a High-Fat Diet (HFD; Research Diets D12492, 60% fat content) for 2 weeks, followed by glucose tolerance testing (GTT) with timings as indicated (ESM Figure 2). Male Leprdb mice (db/db) on BKS background purchased from Taconic (BKS.Cg-m+/+Leprdb/BomTac, Ejby, Denmark) at 5 weeks of age were maintained on normal chow diet and GTTs were performed at 5.5 and 14 weeks of age with timings as indicated (ESM Figure 2). For the GTTs, mice fasted overnight […]

[3] = rHDL formation, particle size by DLS; conditions: 1:100 protein:lipid molar ratio, extruded 100 nm MLVs, 4 days (96 h), 24°C
Method: 1,2-dimyristoyl-sn-glycero-3-phosphocholine (DMPC; Avanti Polar Lipids, Alabaster, AL, USA) was formed into 100 nm multilamellar vesicles (MLV) via extrusion using the LiposoFast system (Avestin, Ottawa, ON, Canada) as previously described. MLV were incubated with RG54 or ApoA-I at the indicated ratios for 4 days at 24°C to form rHDL. The resulting particle sizes were measured by dynamic light scattering (DLS) using a Zetasizer APS (Malvern Instruments, Uppsala, Sweden).
The reduced initial rate may be due to a more complex binding pattern of the larger number of RG54 peptides needed per formed particle: four to five RG54 molecules (54 amino acids each) are needed to make up the size of full-length ApoA-I (243 amino acids). A qualitative assessment of particle formation was therefore next used to evaluate and compare the sizes of formed rHDL. The hydrodynamic diameters of lipid–protein complexes formed after extended incubation (96 h) of RG54 or ApoA-I with extruded 100 nm MLVs were estimated using DLS.
ESM Figure 4. Lipid clearance and peptide-lipid complex formation activity of RG54 compared with full-length ApoA-I. […]

Molecule	insulin secretion at the 15-min time point ([1]; liraglutide 0.1 mg/kg i.p.)	overall insulin AUC ([1]; liraglutide 0.1 mg/kg i.p.)	fasting glucose levels [2]	fasting insulin levels [2]	insulin sensitivity as measured by QUICKI [2]	fasting glucose levels ([1]; 3 h treatment, i.p.)	fasting insulin secretion ([1]; 3 h treatment, i.p.)	insulin sensitivity as measured by QUICKI ([1]; 3 h treatment, i.p.)	lipid-protein complexes formed (DLS frequency plots) [3]	insulin secretion in GTT ([2]; route comparison, i.p. injection, RG54 12 mg/kg, ApoA-I 14 mg/kg, n=6)
CCCCCCCCCCCCCCCC(=O)N[C@@H](CCC(=O)NCCCC[C@H](NC(=O)[C@H](C)NC(=O)[C@H](C)NC(=O)[C@H](CCC(N)=O)NC(=O)CNC(=O)[C@H](CCC(=O)O)NC(=O)[C@H](CC(C)C)NC(=O)[C@H](Cc1ccc(O)cc1)NC(=O)[C@H](CO)NC(=O)[C@H](CO)NC(=O)[C@@H](NC(=O)[C@H](CC(=O)O)NC(=O)[C@H](CO)NC(=O)[C@@H](NC(=O)[C@H](Cc1ccccc1)NC(=O)[C@@H](NC(=O)CNC(=O)[C@H](CCC(=O)O)NC(=O)[C@H](C)NC(=O)[C@@H](N)Cc1c[nH]cn1)[C@@H](C)O)[C@@H](C)O)C(C)C)C(=O)N[C@@H](CCC(=O)O)C(=O)N[C@@H](Cc1ccccc1)C(=O)N[C@H](C(=O)N[C@@H](C)C(=O)N[C@@H](Cc1c[nH]c2ccccc12)C(=O)N[C@@H](CC(C)C)C(=O)N[C@H](C(=O)N[C@@H](CCCNC(=N)N)C(=O)NCC(=O)N[C@@H](CCCNC(=N)N)C(=O)NCC(=O)O)C(C)C)[C@@H](C)CC)C(=O)O [liraglutide, reference compound]	modest, transient increase	not increased	significantly lowered	no concomitant increase	no change	–	–	–	–	–
ApoA-I: Recombinant human ApoA-I, full-length (243 amino acids), used as control	–	–	significantly lowered	no concomitant increase	no change	significantly lowered	no significant changes	no concomitant change	single peaks corresponding to rHDL particles	increased insulin secretion
